Tested on: male polyarthritic hooded rats
Test: Polyarthritis in male hooded rats: emu oil before and after uv exposure or benzoyl peroxide oxidation, with and without additives (Table 8)
Conditions: for anti-inflammatory activity in the rat polyarthritic model: emu oil after exposure to strong ultraviolet light, with or without additive, in words
[1] = Table 8, dose/kg 2 ml (EO), 20 mg (R.A., B-Carotene), 25 mg (Trolox-DE)

Row | SMILES | Mean changes, Thickness Rear Paws, Days 12-16 [1] [mm] | Mean changes, Thickness Rear Paws, Days 16-20 [1] [mm] | Mean changes, Thickness Tail, Days 12-16 [1] [mm] | Mean changes, Thickness Tail, Days 16-20 [1] [mm] | Mean changes, Wt Chge, Days 12-16 [1] [g] | Mean changes, Wt Chge, Days 16-20 [1] | anti-inflammatory activity in the rat polyarthritic model
1 | CC(=O)OC/C=C(C)/C=C/C=C(C)/C=C/C1=C(C)CCCC1(C)C [R.A. in E-Pg, Retinyl acetate] | 0.16 | 0.30 | -0.12 | -0.10 | -02 | +10 g | anti-inflammatory activity could be restored to the oil
2 | CC1=C(/C=C/C(C)=C/C=C/C(C)=C/C=C/C=C(C)/C=C/C=C(C)/C=C/C2=C(C)CCCC2(C)C)C(C)(C)CCC1 [β-carotene] |  |  |  |  |  |  | anti-inflammatory activity could be restored to the oil by the addition of retinyl acetate but not β-carotene

— patent US5431924A, “Anti-inflammatory composition derived from emu oil” (priority 1990, dated 1995)
